According to ChEMBL document CHEMBL1201862, “PubChem BioAssay data set” (2004):
Active and inactive are the calls of the source.

Columns and labels:
[1] = biological target: T1, Endoribonuclease toxin MazF (Escherichia coli K-12, UniProt P0AE70); test: MazF toxin RNase activators, dose response, biochemical, fluorescence, single-stranded RNA substrate, uHTS hits (AID 588481); type: functional
T1 sequence (P0AE70 whole entry): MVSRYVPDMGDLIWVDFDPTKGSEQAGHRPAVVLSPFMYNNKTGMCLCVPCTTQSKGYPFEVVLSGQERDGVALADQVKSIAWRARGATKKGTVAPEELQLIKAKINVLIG

[2] = biological target: Heat shock protein HSP 90-alpha (Homo sapiens, UniProt P07900); type: functional, organism-based
[3] = biological target: T2, Mannose-6-phosphate isomerase (Homo sapiens, UniProt P34949); test: Confirmation of compounds inhibiting phosphomannose isomerase (PMI) via a fluorescence intensity assay using a high concentration of mannose 6-phosphate. [Related pubchem assays (depositor defined):AID1209, AID1220, AID1545, AID1553, AID1620]
T2 sequence (P34949 whole entry): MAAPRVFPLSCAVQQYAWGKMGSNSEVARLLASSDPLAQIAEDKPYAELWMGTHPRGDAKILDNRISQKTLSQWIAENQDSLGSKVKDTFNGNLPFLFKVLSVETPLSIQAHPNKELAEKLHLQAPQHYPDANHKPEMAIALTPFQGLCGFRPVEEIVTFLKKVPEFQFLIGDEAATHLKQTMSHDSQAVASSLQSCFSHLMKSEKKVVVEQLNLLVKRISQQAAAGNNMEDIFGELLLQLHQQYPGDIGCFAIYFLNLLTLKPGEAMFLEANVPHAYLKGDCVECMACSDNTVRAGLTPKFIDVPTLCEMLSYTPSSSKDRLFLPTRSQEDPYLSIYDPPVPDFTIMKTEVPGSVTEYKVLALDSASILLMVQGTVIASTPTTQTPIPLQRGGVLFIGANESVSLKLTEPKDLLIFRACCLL

[4] = biological target: T3, Intestinal-type alkaline phosphatase (Homo sapiens, UniProt P09923); test: human IAP activators, dose response, biochemical, luminescent, uHTS hits, set 2 (AID 488817); type: functional;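 note: potency of activators that raise enzyme activity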
[5] = biological target: T3, Intestinal-type alkaline phosphatase; test: human intestinal alkaline phosphatase activators, dose response, biochemical, luminescence, uHTS hits (AID 463120); type: functional
[6] = microbe, parasite or virus in culture; type: functional; conditions: Mycobacterium tuberculosis
[7] = biological target: T1, Endoribonuclease toxin MazF; test: fluorescent RNA oligo signal without MazF, dose response, counter-screen for MazEF activator project, biochemical, fluorescence, single-stranded RNase substrate (AID 588502); type: functional
CHO = test: cytotoxicity in TLR9-MyD88 CHO cells, dose response, cytotoxicity control for TLR9-MyD88 binding inhibitor project, cell-based, luminescence (AID 588339); type: functional, hamster; conditions: Cricetulus griseus;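 note: CHO cells stably coexpressing TLR9 and MyD88 fusions from primary screen; compound exposure lasted 48 hours before viability readout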
[8] = biological target: Intestinal-type alkaline phosphatase (Mus musculus, UniProt P24822); test: PubChem AID 488874; type: functional
[9] = biological target: Alkaline phosphatase, placental type (Homo sapiens, UniProt P05187); test: PLAP enzyme inhibitors, confirmation, biochemical, luminescence (AID 1512); type: functional
[10] = biological target: T2, Mannose-6-phosphate isomerase; test: PMI enzyme inhibitors, confirmation, biochemical, fluorescence intensity (AID 1535)
[11] = inhibitors of firefly luciferase expression or activity, dose response, H4 neuroglioma cells, luminescence (AID 1990); type: functional, cell-based
[12] = inhibitors of SNCA 5'UTR-driven reporter translation, confirmation, H4 neuroglioma cells, luminescence (AID 1988); type: functional, cell-based
[13] = Luminescence Cell-Based Dose Response HTS to Identify Inhibitors of 5'UTR Stem-Loop Driven Prion Protein mRNA Translation in H4 Neuroglioblastoma Cells. [Related pubchem assays: 1827 (Project Summary), 1813 (Primary HTS)]; type: functional
[14] = biological target: Type-1 angiotensin II receptor (Homo sapiens, UniProt P30556); test: AT1 receptor agonists, dose response, selectivity assay for APJ receptor agonist project, cell-based, uHTS hits (AID 488865); type: functional;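 note: beta-arrestin recruitment to AT1 measured by enzyme fragment complementation luminescence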
Coagulation factor XII = biological target: T4, Coagulation factor XII (Homo sapiens, UniProt P00748); test: Factor XIIa Dose Response Confirmation from Single Well HTS. [Related pubchem assays (depositor defined):AID701]; type: functional
T4 sequence (P00748 whole entry): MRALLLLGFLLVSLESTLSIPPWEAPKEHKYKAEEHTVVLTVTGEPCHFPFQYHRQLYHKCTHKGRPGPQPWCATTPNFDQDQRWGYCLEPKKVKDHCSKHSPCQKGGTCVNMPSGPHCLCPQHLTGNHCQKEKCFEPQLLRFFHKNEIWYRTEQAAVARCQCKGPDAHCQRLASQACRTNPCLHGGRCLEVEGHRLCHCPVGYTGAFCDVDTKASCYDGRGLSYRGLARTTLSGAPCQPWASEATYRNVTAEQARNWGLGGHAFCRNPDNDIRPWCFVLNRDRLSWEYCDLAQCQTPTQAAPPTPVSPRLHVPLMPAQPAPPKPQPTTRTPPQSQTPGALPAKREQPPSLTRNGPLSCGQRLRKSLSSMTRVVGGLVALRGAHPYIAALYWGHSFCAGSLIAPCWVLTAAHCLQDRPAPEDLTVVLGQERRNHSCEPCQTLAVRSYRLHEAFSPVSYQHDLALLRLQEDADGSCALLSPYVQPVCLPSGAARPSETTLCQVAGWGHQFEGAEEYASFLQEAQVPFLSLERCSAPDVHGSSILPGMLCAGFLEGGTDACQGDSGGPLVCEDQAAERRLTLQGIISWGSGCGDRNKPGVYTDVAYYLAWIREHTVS

[15] = biological target: T5, Tyrosine-protein phosphatase non-receptor type 7 (Homo sapiens, UniProt P35236); test: HePTP (PTPN7) phosphatase inhibitor potency, SAR follow-up, biochemical, set 2 (AID 449736); type: functional
T5 sequence (P35236 whole entry): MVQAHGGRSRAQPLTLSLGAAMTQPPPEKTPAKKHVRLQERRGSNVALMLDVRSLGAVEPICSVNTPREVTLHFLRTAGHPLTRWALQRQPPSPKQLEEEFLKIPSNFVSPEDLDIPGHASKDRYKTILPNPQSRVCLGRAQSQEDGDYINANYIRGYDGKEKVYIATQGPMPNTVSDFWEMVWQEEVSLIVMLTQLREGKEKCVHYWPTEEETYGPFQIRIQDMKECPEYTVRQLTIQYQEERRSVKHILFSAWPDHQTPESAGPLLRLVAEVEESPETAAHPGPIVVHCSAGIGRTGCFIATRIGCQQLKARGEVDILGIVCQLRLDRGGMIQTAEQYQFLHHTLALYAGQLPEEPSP

[16] = biological target: T6, Dual specificity protein phosphatase 6 (Rattus norvegicus, UniProt Q64346); test: SAR analysis of inhibitors of MKP-3 - Set 2. [Related pubchem assays (depositor defined):AID1055, AID1661, AID425, AID553, AID566]; type: functional
T6 sequence (Q64346 whole entry): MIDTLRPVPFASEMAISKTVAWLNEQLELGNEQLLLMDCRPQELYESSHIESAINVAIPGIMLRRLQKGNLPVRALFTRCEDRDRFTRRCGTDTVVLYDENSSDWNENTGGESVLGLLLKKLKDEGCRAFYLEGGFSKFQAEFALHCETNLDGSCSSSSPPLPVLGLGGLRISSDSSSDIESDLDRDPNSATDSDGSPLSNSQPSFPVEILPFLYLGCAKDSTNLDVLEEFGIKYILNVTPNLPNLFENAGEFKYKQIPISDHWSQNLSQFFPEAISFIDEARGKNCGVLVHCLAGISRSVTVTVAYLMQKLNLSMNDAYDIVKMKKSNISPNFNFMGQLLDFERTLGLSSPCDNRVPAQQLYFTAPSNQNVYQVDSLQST

[17] = biological target: T7, Dual specificity protein phosphatase 3 (Homo sapiens, UniProt P51452); test: SAR VHR1 Fluorescent Assay for In Vitro dose response studies Set 2. [Related pubchem assays (depositor defined):AID1654, AID1661, AID1878]; type: functional
[18] = biological target: T7, Dual specificity protein phosphatase 3; test: SAR VHR1 Fluorescent Assay for In Vitro dose response studies. [Related pubchem assays (depositor defined):AID1654, AID1661, AID1878, AID1992, AID2004, AID2070, AID2085]; type: functional
[19] = biological target: T7, Dual specificity protein phosphatase 3; test: SAR VHR1 absorbance Assay for In Vitro dose response studies. [Related pubchem assays (depositor defined):AID1654, AID1661, AID1878, AID1992, AID2004]
[20] = biological target: T5, Tyrosine-protein phosphatase non-receptor type 7; test: redox-dependent HePTP inhibition, mechanism study, biochemical, fluorescence (AID 2068); type: functional
[21] = biological target: T5, Tyrosine-protein phosphatase non-receptor type 7; test: SAR analysis of chemical inhibitors of HePTP using a Fluorescent assay - Set 2. [Related pubchem assays (depositor defined):AID1059, AID1077, AID1661, AID2085, AID521]; type: functional
[22] = biological target: T6, Dual specificity protein phosphatase 6; type: functional

T7 sequence (P51452 whole entry): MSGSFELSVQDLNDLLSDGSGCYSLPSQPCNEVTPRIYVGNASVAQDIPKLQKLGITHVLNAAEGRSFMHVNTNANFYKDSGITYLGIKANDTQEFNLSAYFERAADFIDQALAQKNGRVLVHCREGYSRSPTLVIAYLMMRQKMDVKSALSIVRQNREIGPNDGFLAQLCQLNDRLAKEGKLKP
T3 sequence (P09923 whole entry): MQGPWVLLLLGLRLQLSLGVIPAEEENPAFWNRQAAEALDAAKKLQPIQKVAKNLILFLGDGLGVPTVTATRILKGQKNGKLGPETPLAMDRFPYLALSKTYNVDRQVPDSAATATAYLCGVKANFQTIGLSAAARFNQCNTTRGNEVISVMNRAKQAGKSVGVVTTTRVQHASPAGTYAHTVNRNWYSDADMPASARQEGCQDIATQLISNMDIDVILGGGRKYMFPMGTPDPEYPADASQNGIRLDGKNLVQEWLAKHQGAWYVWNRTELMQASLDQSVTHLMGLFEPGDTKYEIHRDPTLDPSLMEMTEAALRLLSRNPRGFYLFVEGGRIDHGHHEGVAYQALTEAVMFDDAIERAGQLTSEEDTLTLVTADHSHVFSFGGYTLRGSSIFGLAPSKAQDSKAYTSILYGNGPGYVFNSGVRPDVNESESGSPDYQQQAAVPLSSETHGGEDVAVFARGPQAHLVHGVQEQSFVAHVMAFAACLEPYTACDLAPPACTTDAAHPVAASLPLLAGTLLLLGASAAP
Sequence of Alkaline phosphatase, placental type (P05187 whole entry): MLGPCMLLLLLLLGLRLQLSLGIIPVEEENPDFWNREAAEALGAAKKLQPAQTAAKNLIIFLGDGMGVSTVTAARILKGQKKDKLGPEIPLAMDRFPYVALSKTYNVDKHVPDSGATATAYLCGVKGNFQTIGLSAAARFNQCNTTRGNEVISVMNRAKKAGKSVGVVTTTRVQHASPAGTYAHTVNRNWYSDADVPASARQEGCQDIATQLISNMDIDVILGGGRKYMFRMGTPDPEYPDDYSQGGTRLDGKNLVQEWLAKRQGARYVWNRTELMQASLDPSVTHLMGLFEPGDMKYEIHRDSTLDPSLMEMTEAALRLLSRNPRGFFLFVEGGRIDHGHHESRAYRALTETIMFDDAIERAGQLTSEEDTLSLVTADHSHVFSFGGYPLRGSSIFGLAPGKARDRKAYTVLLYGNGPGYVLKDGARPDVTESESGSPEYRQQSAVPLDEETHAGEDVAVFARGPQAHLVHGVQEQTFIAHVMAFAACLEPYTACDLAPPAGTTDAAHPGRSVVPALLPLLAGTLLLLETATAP
Sequence of Type-1 angiotensin II receptor (P30556 whole entry, the tested form may be a part): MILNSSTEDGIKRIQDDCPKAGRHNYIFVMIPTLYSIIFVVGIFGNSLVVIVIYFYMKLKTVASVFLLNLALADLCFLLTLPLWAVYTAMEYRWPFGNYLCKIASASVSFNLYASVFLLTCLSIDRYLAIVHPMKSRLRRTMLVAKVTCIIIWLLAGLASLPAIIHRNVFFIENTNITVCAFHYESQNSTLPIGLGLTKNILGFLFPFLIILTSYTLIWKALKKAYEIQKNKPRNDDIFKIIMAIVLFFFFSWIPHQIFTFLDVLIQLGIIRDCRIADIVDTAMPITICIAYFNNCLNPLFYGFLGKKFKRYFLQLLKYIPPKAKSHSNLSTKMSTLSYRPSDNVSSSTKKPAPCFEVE
Sequence of Intestinal-type alkaline phosphatase (Mus musculus, UniProt P24822) (P24822 whole entry): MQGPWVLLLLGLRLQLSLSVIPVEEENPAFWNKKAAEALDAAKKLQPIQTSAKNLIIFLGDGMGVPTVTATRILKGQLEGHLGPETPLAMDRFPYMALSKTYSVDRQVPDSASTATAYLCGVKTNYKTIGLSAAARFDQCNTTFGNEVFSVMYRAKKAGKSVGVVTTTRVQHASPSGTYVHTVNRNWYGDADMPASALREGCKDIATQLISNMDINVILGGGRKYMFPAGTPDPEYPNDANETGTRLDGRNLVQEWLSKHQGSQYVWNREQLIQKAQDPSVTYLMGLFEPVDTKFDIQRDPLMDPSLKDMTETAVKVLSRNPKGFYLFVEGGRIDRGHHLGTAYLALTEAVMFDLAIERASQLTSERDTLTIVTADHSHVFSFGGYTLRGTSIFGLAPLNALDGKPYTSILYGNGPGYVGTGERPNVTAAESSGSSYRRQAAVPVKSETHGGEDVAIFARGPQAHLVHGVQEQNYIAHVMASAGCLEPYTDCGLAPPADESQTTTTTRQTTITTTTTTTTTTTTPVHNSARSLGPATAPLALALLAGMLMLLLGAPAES

O=C1Nc2ccc(Br)cc2C12NNc1ccccc1O2 (centres undefined)
EC50 [1]: > 99 µM (inactive)
AC50 [2]: 3.34 µM (active)
IC50 [3]: > 100 µM (inactive)
EC50 [4]: 0.257 µM (active)
EC50 [5]: 10.1 µM (active)
CC50 [6]: 23.8 µM (active)
EC50 [7]: 73.1 µM (inactive)
IC50 (CHO): 11.3 µM (inactive)
IC50 [8]: 8.09 µM (active)
IC50 [9]: > 100 µM (inactive)
IC50 [10]: > 100 µM (inactive)

C=CCn1c(SCC(=O)N2CCN(c3ccccc3)CC2)nc2c3ccccc3nc-2c1O
EC50 [11]: > 120 µM (not active)
EC50 [12]: 8.55 µM (active)
EC50 [13]: 14.2 µM (active)
EC50 [14]: > 100 µM (inactive)

O=C(Oc1ccc2c3c(c(=O)oc2c1)CCC3)c1ccco1
IC50 (Coagulation factor XII): 6.22 µM (active)

NS(=O)(=O)c1ccc(NC(=S)N2CCN(Cc3ccc4c(c3)OCO4)CC2)cc1
IC50 [15]: > 100 µM (inactive)
IC50 [16]: > 100 µM (inactive)
IC50 [17]: 1.69 µM (active)
IC50 [18]: > 99 µM (inactive)
IC50 [19]: 5.41 µM (active)
IC50 [20]: 0.196 µM (active)
IC50 [21]: 4.32 µM (active)
IC50 [22]: > 99 µM (inactive)
